Source: patent publication US11141452B2, “Bifunctional compounds for relief of pain comprising an opioid receptor agonist moiety and a NK1 receptor antagonist moiety and methods for treating pain” (THE ARIZONA BOARD OF REGENTS ON BEHALF OF THE UNIVERSITY OF …, priority 2014, dated 2021)
“And” between values parts separate entries of the source, which are not always exact repeats. Identical values can stand only once. Non-standard residues stand in square brackets, D forms with d. Residues, ends and D or L forms follow the SMILES beside them. *: point of attachment. NH(3,5-(CF3)2-benzyl) = FC(F)(F)c1cc(CN*)cc(C(F)(F)F)c1; NMeBn(3,5-(CF3)2) = CN(Cc1cc(C(F)(F)F)cc(C(F)(F)F)c1)*; Dmt = Cc1cc(O)cc(C)c1C[C@H](N)C(=O)O; NMeF = CN[C@@H](Cc1ccccc1)C(=O)O; Orn = NCCC[C@H](N)C(=O)O

Columns and labels:
[1] = target: T1, hNK1 (Homo sapiens, UniProt P25103); test: hNK1/CHO cell membrane radioligand binding assay ([3H]SP); conditions: for Ki^hNK1/Ki^rNK1: ratio human/rat NK1; for Ki: Ki^hNK1 (nM), hNK1/CHO membranes, [3H]SP
T1 construct: expressed in transfected cells; host or cells: CHO

[2] = target: MOR; test: Radioligand binding assay at μ opioid receptor; conditions: for Log[IC50±] (μ): log IC50 ± error; for Ki^μ/Ki^δ: ratio of binding affinities MOR/DOR
Experimental: (§1) Binding affinities of these ligands were measured on radioligand binding assays. […] ([43]).

[3] = target: T2, NK1R (Cavia porcellus, UniProt P30547); test: GPI/LMMP functional assay at NK1R (agonist and antagonist testing); format: cell-based, guinea pig
T2 construct: The longitudinal muscle with myenteric plexus (LMMP) was carefully separated from the circular muscle; from tissue; host or cells: guinea pig ileum longitudinal muscle with myenteric plexus

[4] = system: MOR; test: Guinea pig isolated ileum (GPI) functional assay; format: cell-based; conditions: for IC50: agonist activity, electrically stimulated tissue, read-out: GPI (MOR) IC50
[5] = target: DOR (Homo sapiens, UniProt P41143); test: Radioligand binding assay at δ opioid receptor; conditions: for Ki: Ki^δ (nM)
Experimental: as §1

T1 sequence (P25103 whole entry): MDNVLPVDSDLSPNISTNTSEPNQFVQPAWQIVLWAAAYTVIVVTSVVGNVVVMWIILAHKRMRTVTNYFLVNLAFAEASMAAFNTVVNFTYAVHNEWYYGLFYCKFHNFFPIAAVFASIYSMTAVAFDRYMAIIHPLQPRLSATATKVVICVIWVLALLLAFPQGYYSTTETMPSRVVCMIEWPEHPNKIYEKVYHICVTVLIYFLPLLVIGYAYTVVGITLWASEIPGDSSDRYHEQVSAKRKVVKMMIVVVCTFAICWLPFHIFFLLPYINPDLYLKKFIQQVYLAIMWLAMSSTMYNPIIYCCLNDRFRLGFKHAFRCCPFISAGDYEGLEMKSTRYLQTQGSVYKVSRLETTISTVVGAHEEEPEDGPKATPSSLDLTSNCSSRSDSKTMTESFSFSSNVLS
Sequence of DOR (P41143 whole entry): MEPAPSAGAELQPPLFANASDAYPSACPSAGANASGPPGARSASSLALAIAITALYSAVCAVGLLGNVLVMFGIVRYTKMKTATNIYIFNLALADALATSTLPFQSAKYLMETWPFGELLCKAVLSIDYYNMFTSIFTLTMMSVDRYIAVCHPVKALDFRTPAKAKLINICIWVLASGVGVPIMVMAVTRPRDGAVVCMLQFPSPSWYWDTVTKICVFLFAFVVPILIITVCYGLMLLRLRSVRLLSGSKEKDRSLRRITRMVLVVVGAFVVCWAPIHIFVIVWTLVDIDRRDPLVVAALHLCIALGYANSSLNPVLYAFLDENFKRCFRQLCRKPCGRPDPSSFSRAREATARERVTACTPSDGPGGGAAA
T2 sequence (P30547 whole entry): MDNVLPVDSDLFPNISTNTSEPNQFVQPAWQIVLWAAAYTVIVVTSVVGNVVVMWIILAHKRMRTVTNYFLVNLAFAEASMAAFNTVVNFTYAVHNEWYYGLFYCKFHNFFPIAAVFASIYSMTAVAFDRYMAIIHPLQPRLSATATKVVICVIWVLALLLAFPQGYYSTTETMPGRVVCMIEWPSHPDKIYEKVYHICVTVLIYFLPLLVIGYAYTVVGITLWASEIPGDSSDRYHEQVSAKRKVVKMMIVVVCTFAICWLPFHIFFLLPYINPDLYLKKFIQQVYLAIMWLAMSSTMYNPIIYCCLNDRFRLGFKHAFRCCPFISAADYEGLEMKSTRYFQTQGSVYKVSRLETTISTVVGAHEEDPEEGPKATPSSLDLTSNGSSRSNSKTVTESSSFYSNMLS

Row | Structure (SMILES) | Ki^hNK1/Ki^rNK1 [1] | Ki [2] | Log[IC50±] (μ) [2] | further results
1 | Cc1cc(O)cc(C)c1C[C@H](N)C(=O)N(C)[C@H](C)C(=O)N(C)CC(=O)N(C)[C@@H](Cc1ccccc1)C(=O)N1CCC[C@H]1C(=O)N[C@@H](CC(C)C)C(=O)N[C@@H](Cc1c[nH]c2ccccc12)C(=O)NCc1cc(C(F)(F)F)cc(C(F)(F)F)c1 [AKG185, H-Dmt-D-NMeAla-NMeGly-NMePhe-Pro-Leu-Trp-NH-Bn(3′,5′-(CF3)2)] | 1/21 | – | – | –
2 | Cc1cc(O)cc(C)c1C[C@H](N)C(=O)N(C)[C@H](C)C(=O)N(C)CC(=O)N[C@@H](Cc1ccccc1)C(=O)N1CCC[C@H]1C(=O)N[C@@H](CC(C)C)C(=O)N[C@@H](Cc1c[nH]c2ccccc12)C(=O)NCc1cc(C(F)(F)F)cc(C(F)(F)F)c1 [AKG183, H-Dmt-D-NMeAla-NMeGly-Phe-Pro-Leu-Trp-NH-Bn(3′,5′-(CF3)2)] | 1/7 | – | – | –
3 | Cc1cc(O)cc(C)c1C[C@H](N)C(=O)N[C@H](C)C(=O)NCC(=O)N[C@@H](Cc1ccc(Br)cc1)C(=O)N1CCC[C@H]1C(=O)N[C@@H](CC(C)C)C(=O)N[C@@H](Cc1c[nH]c2ccccc12)C(=O)NCc1cc(C(F)(F)F)cc(C(F)(F)F)c1 [AKG192, H-Dmt-D-Ala-Gly-Phe(4-Br)-Pro-Leu-Trp-NH-Bn(3′,5′-(CF3)2)] | – | 5 nM | −7.96 ± 0.12 | Kb ([3]; GPI/LMMP (NK1R) Ke (nM) ± S.E.M., antagonist activity): 23.4 ± 8.9 nM; IC50 [4]: 463 ± 114 nM
4 | Cc1cc(O)cc(C)c1C[C@H](N)C(=O)N[C@H](C)C(=O)NCC(=O)N(C)[C@@H](Cc1ccc(F)cc1)C(=O)N[C@@H](CCC(N)=O)C(=O)N1CCC[C@H]1C(=O)N[C@@H](CC(C)C)C(=O)N[C@@H](Cc1c[nH]c2ccccc12)C(=O)NCc1cc(C(F)(F)F)cc(C(F)(F)F)c1 [AKG144] | – | 0.5 nM | −8.94 ± 0.07 | IC50 [5]: 0.437 nM; Ki [5]: 0.2 nM
5 | CC(C)C[C@H](NC(=O)[C@@H]1CCCN1C(=O)[C@H](CCC(N)=O)NC(=O)[C@H](Cc1ccccc1)N(C)C(=O)CNC(=O)[C@@H](C)NC(=O)[C@@H](N)Cc1ccc(O)cc1)C(=O)N[C@@H](Cc1c[nH]c2ccccc12)C(=O)NCc1cc(C(F)(F)F)cc(C(F)(F)F)c1 [AKG129] | – | 7 nM | −7.84 ± 0.11 | –
6 | CC(C)C[C@H](NC(=O)[C@@H]1CCCN1C(=O)[C@H](CCCCN)NC(=O)[C@H](Cc1ccccc1)N(C)C(=O)CNC(=O)[C@@H](C)NC(=O)[C@@H](N)Cc1ccc(O)cc1)C(=O)N[C@@H](Cc1c[nH]c2ccccc12)C(=O)NCc1cc(C(F)(F)F)cc(C(F)(F)F)c1 [AKG174] (H-Y[dA]G[NMeF]KPLW-{NH(3,5-(CF3)2-benzyl)}; N-terminus assumed) | – | 8 nM | −7.81 ± 0.08 | –
7 | Cc1cc(O)cc(C)c1C[C@H](N)C(=O)N[C@H](C)C(=O)NCC(=O)N(C)[C@@H](Cc1ccccc1)C(=O)N[C@@H](CCC(N)=O)C(=O)N1CCC[C@H]1C(=O)N[C@@H](CC(C)C)C(=O)N[C@@H](Cc1c[nH]c2ccccc12)C(=O)NCc1cc(C(F)(F)F)cc(C(F)(F)F)c1 [AKG141] | 1/10 | – | – | –
8 | CC(C)C[C@H](NC(=O)[C@@H]1CCCN1C(=O)[C@@H](CCC(N)=O)NC(=O)[C@H](Cc1ccccc1)NC(=O)CNC(=O)[C@@H](C)NC(=O)[C@@H](N)Cc1ccc(O)cc1)C(=O)N[C@@H](Cc1c[nH]c2ccccc12)C(=O)NCc1cc(C(F)(F)F)cc(C(F)(F)F)c1 [AKG103] | – | 120 nM and 116 nM | −6.57 ± 0.05 | Ki [1]: 2.1 nM; IC50 [5]: 155 nM; Ki [5]: 72 nM
9 | CC(C)C[C@H](NC(=O)[C@@H]1CCCN1C(=O)[C@H](CCC(N)=O)NC(=O)[C@H](Cc1ccc(F)cc1)NC(=O)CNC(=O)[C@@H](C)NC(=O)[C@@H](N)Cc1ccc(O)cc1)C(=O)N[C@@H](Cc1c[nH]c2ccccc12)C(=O)NCc1cc(C(F)(F)F)cc(C(F)(F)F)c1 [AKG142] | – | 8 nM | −7.67 ± 0.07 | IC50 [5]: 3.39 nM; Ki [5]: 2 nM
10 | Cc1cc(O)cc(C)c1C[C@H](N)C(=O)N[C@H](C)C(=O)N[C@@H](Cc1ccccc1)C(=O)NCC(=O)N[C@@H](Cc1ccc(O)cc1)C(=O)N1CCC[C@H]1C(=O)N[C@@H](CC(C)C)C(=O)N[C@@H](Cc1c[nH]c2ccccc12)C(=O)NCc1cc(C(F)(F)F)cc(C(F)(F)F)c1 [AKG118] (H-[Dmt][dA]FGYPLW-{NH(3,5-(CF3)2-benzyl)}) | 1/11 | 1 nM | −8.65 ± 0.12 | Ki^μ/Ki^δ [2]: 1/3
11 | Cc1cc(O)cc(C)c1C[C@H](N)C(=O)N[C@H](C)C(=O)N(C)CC(=O)N[C@@H](Cc1ccccc1)C(=O)N1CCC[C@H]1C(=O)N[C@@H](CC(C)C)C(=O)N[C@@H](Cc1c[nH]c2ccccc12)C(=O)NCc1cc(C(F)(F)F)cc(C(F)(F)F)c1 [AKG180, H-Dmt-D-Ala-NMeGly-Phe-Pro-Leu-Trp-NH-Bn(3′,5′-(CF3)2)] | 1/6 | – | – | –
12 | CC(C)C[C@H](NC(=O)[C@@H]1CCCN1C(=O)[C@H](CCC(N)=O)NC(=O)[C@H](Cc1ccc(F)cc1)N(C)C(=O)CNC(=O)[C@@H](C)NC(=O)[C@@H](N)Cc1ccc(O)cc1)C(=O)N[C@@H](Cc1c[nH]c2ccccc12)C(=O)NCc1cc(C(F)(F)F)cc(C(F)(F)F)c1 [AKG143] | – | 2 nM | −8.35 ± 0.07 | Ki [1]: 3.2 nM; IC50 [5]: 1.45 nM; Ki [5]: 0.7 nM
13 | Cc1cc(O)cc(C)c1C[C@H](N)C(=O)N(C)[C@H](C)C(=O)NCC(=O)N(C)[C@@H](Cc1ccccc1)C(=O)N1CCC[C@H]1C(=O)N[C@@H](CC(C)C)C(=O)N[C@@H](Cc1c[nH]c2ccccc12)C(=O)NCc1cc(C(F)(F)F)cc(C(F)(F)F)c1 [AKG184, H-Dmt-D-NMeAla-Gly-NMePhe-Pro-Leu-Trp-NH-Bn(3′,5′-(CF3)2)] | 1/40 | – | – | –
14 | CC(C)C[C@H](NC(=O)[C@@H]1CCCN1C(=O)[C@H](CCCN)NC(=O)[C@H](Cc1ccccc1)N(C)C(=O)CNC(=O)[C@@H](C)NC(=O)[C@@H](N)Cc1ccc(O)cc1)C(=O)N[C@@H](Cc1c[nH]c2ccccc12)C(=O)NCc1cc(C(F)(F)F)cc(C(F)(F)F)c1 [AKG173] (H-Y[dA]G[NMeF][Orn]PLW-{NH(3,5-(CF3)2-benzyl)}) | – | 5 nM | −7.95 ± 0.08 | Ki^μ/Ki^δ [2]: 100/1; Ki [1]: 15.5 nM; IC50 [5]: 501 nM; binding selectivity for DOR over MOR [5]: 100 times; Ki [5]: 0.05 nM
15 | CC(C)C[C@H](NC(=O)[C@@H]1CCCN1C(=O)[C@H](Cc1ccc(O)cc1)NC(=O)CNC(=O)[C@H](Cc1ccccc1)NC(=O)[C@@H](C)NC(=O)[C@@H](N)Cc1ccc(O)cc1)C(=O)N[C@@H](Cc1c[nH]c2ccccc12)C(=O)N(C)Cc1cc(C(F)(F)F)cc(C(F)(F)F)c1 [QXP04] (H-Y[dA]FGYPLW-{NMeBn(3,5-(CF3)2)}) | – | 10 nM | −7.66 ± 0.05 | Ki^μ/Ki^δ [2]: 1/7; GPI/LMMP (NK1R) Agonist ([3]; agonist activity at the concentration in the cell): None at 1 uM; GPI/MVD IC50 ratio [4]: 23/1; IC50 [4]: 389 ± 180 nM
16 | CC(C)C[C@H](NC(=O)[C@@H]1CCCN1C(=O)[C@H](Cc1ccccc1)N(C)C(=O)[C@H](Cc1ccccc1)NC(=O)[C@@H]1CCCN1C(=O)[C@@H](N)Cc1ccc(O)cc1)C(=O)N[C@@H](Cc1c[nH]c2ccccc12)C(=O)NCc1cc(C(F)(F)F)cc(C(F)(F)F)c1 [AKG224, H-Tyr-Pro-Phe-NMePhe-Pro-Leu-Trp-NH-Bn(3′,5′-(CF3)2)] (H-YPF[NMeF]PLW-{NH(3,5-(CF3)2-benzyl)}) | 1/10 | – | – | –
17 | CSCC[C@H](NC(=O)[C@H](Cc1ccccc1)N(C)C(=O)CNC(=O)[C@@H](C)NC(=O)[C@@H](N)Cc1ccc(O)cc1)C(=O)N1CCC[C@H]1C(=O)N[C@@H](CC(C)C)C(=O)N[C@@H](Cc1c[nH]c2ccccc12)C(=O)NCc1cc(C(F)(F)F)cc(C(F)(F)F)c1 [AKG106] | 1/7 | – | – | –
18 | CSCC[C@H](NC(=O)[C@H](Cc1ccccc1)N(C)C(=O)CNC(=O)[C@@H](C)NC(=O)[C@@H](N)Cc1c(C)cc(O)cc1C)C(=O)N1CCC[C@H]1C(=O)N[C@@H](CC(C)C)C(=O)N[C@@H](Cc1c[nH]c2ccccc12)C(=O)NCc1cc(C(F)(F)F)cc(C(F)(F)F)c1 [AKG107] | 1/7 | – | – | –
19 | Cc1cc(O)cc(C)c1C[C@H](N)C(=O)N(C)[C@H](C)C(=O)NCC(=O)N[C@@H](Cc1ccccc1)C(=O)N1CCC[C@H]1C(=O)N[C@@H](CC(C)C)C(=O)N[C@@H](Cc1c[nH]c2ccccc12)C(=O)NCc1cc(C(F)(F)F)cc(C(F)(F)F)c1 [AKG181, H-Dmt-D-NMeAla-Gly-Phe-Pro-Leu-Trp-NH-Bn(3′,5′-(CF3)2)] | 1/5 | – | – | –
20 | Cc1cc(O)cc(C)c1C[C@H](N)C(=O)N[C@H](C)C(=O)NCC(=O)N[C@@H](Cc1ccc(I)cc1)C(=O)N1CCC[C@H]1C(=O)N[C@@H](CC(C)C)C(=O)N[C@@H](Cc1c[nH]c2ccccc12)C(=O)NCc1cc(C(F)(F)F)cc(C(F)(F)F)c1 [AKG193, H-Dmt-D-Ala-Gly-Phe(4-I)-Pro-Leu-Trp-NH-Bn(3′,5′-(CF3)2)] | – | 6 nM | −7.88 ± 0.07 | GPI (MOR) % at 1 uM ([4]; at 1 uM): 41% at 1 uM
